From paper PMC9011347, “Small-Molecule Inhibitors Targeting Lipolysis in Human Adipocytes” (Journal of the American Chemical Society, 2022)

Test system: HepG2^control cells
Assay: Seahorse cellular respiration (OCR)
Assay type: cell-based, human
Details: NG-497 40 μM
Excerpt: NG-497 could affect respiration by limiting the availability of FAs as an energy substrate or by off-target effects leading to mitochondrial dysfunction, which is a major mechanism of drug-induced toxicity.[47] To monitor on- and off-target effects of NG-497 on cellular respiration, we performed seahorse experiments using HepG2 cells endogenously expressing (HepG2^control) or lacking ATGL (HepG2^AKO). This method allows the measurement of basal respiration (BR), maximal respiration (MR), proton leak (PL), ATP production (ATPP), spare respiratory capacity (SRC), and nonmitochondrial oxygen consumption (NMOC) after successive addition of oligomycin (ATP-synthase inhibitor), carbonyl cyanide p-trifluoromethoxyphenylhydrazone (FCCP) (uncoupler), and antimycin/rotenone (electron transport chain inhibitors). The human hepatoma cell line HepG2 was selected as a model since it is frequently used to monitor drug-induced mitochondrial dysfunction.[48] Like most cancer cell lines, HepG2 cells rely on anaerobic glycolysis for ATP generation, implicating that inhibition of lipolysis has only minor effects on respiration.
(a) HepG2 cells were treated with NG-497 (40 μM) or DMSO as control and oxygen consumption rate (OCR) was determined in Seahorse growth medium supplemented with glucose (25 mM) using the SeaHorse XF96 extracellular flux analyzer. OCR was determined after subsequent addition of 1 μM Oligomycin (ATP-synthase inhibitor), 1 μM FCCP (uncoupler), and 1 μM antimycin/rotenone (electron transport chain inhibitors). (b) Statistical analysis of basal respiration (BR), maximal respiration (MR), proton leak (PL), ATP production (ATPP), spare respiratory capacity (SRC), and nonmitochondrial oxygen consumption (NMOC) of control and NG-497-treated cells. (c) Extracellular acidification rate (ECAR) and (d) OCR of HepG2 cells were determined in Seahorse growth medium supplemented with glucose (25 mM) or galactose (10 mM). (e) Determination of the ORC of HepG2 cells grown in medium supplemented with galactose (10 mM) and NG-497 (40 μM) or DMSO as control with (f) respective statistical analysis. (g) ATGL gene was inactivated in HepG2 cells using the CRISPR/Cas9 system. Growth of cells expressing (HepG2^control) or lacking functional ATGL (HepG2^AKO) was determined using a BioRad cell analyzer. ATGL expression was analyzed by Western blotting analysis using an anti-ATGL antibody and GAPDH as a loading control (inset). (h) Acylglycerol content of HepG2^control and HepG2^AKO cells was determined by a commercial kit (TG Infinity reagent, Thermo Fisher Scientific). (i) OCR of galactose-supplemented HepG2^AKO cells and (j) the respective statistical analysis. Data are presented as mean ± standard error of the mean (SEM). Statistical significance was determined via Student’s t test (*p < 0.05; **p < 0.01; ***p < 0.001) or ANOVA followed by Bonferroni post hoc test (^#p < 0.05; ^##p < 0.01; ^###p < 0.001). […]
Sanger sequencing. The resulting constructs were transfected into HepG2 cells using the Turbofect Reagent (#R0531, Thermo Fisher Scientific) according to the manufacturer’s instructions. Cells transfected with empty pSpCas9(BB)-2A-Puro V2.0 served as negative control. 24 h after transfection, puromycin was added at a concentration of 4 µg/ml to eliminate non-transfected cells.
48 h later, the remaining cells were singularized in 96-well plates by seeding 1 cell/well. After clonal expansion for three weeks, the resulting cell lines were screened for ATGL deletion by immunoblotting using an ATGL-specific antibody (#2138S, CST). gRNA_v1 construct was chosen for further analysis.
Determination of cellular acylglycerol content. Cells were harvested in buffer A, total lipids extracted with chloroform/methanol (2/1, v/v) for 1 h at RT on a top-over wheel, and phase separation was achieved by centrifugation at 2,000 x g for 10min at RT. The organic phase was collected, dried under a stream of nitrogen, and dissolved in 2% Triton X-100 by […]
sonication. […]

[1] = glucose medium, tendency, not significant

Structure (SMILES): CCOc1ccc(-c2cc(OC)cc(C(=O)OC(C)C)n2)cc1 [NG-497]
- change of basal OCR (BR) (galactose (10 mM) medium): −15%
- change of maximal respiration (MR) (galactose (10 mM) medium): −17%
- change of spare respiratory capacity (SRC) (galactose (10 mM) medium): −20%
- change of maximal respiration (MR) [1]: −11%
- change of spare respiratory capacity (SRC) [1]: −18%
- effects on respiration (OCR parameters) (medium with glucose (25 mM)): could not observe significant effects
